Experimental data: PubChem BioAssay (NCI)
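Where inhibition never reached the appropriate level, the endpoint shown equals the highest concentration tested. Otherwise, values were interpolated linearly from a five-concentration, 48-hour dose response in 96-well plates. At the GI50, growth is halved. At the TGI there is no net growth.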

Tests used:
Assay in all cases: inhibition of tumour cell growth, NCI panel, 48 h
[1] = tested on: NCI-H23 lung
[2] = tested on: HOP-62 NSCLC
[3] = tested on: SW-620 colon
[4] = tested on: SF-268 CNS
[5] = tested on: K-562 leukemia
[6] = tested on: HT29 colon
[7] = tested on: SN12C renal
[8] = tested on: RXF 393 renal
[9] = tested on: SK-MEL-5 melanoma
[10] = tested on: CAKI-1 renal

## CCOC(=O)N1CCC(=O)C(CNC23CC4CC(CC(C4)C2)C3)C1 (stereo unspecified)
[1]
  TGI: > 100 µM
[2]
  TGI: > 100 µM
[3]
  TGI: 39.5 µM
[4]
  TGI: > 100 µM
[5]
  TGI: 31.2 µM
[6]
  TGI: 43.7 µM
[7]
  TGI: > 100 µM
[8]
  TGI: 33.2 µM
[9]
  TGI: > 100 µM

## COc1ccc2ccccc2c1C1NC(=O)c2ccccc2N1 (stereo unspecified)
[1]
  TGI: > 100 µM
[2]
  TGI: > 100 µM
[3]
  TGI: > 37.5 µM
[4]
  TGI: > 100 µM
[10]
  TGI: > 85.2 µM
[7]
  TGI: > 82.6 µM
[8]
  TGI: > 23.6 µM
[9]
  TGI: 6.31 µM

## O=C(Nc1ccc(Cl)c(Cl)c1)Nc1c(Oc2ccc(Cl)c(Cl)c2)ccc(Cl)c1S(=O)(=O)O
[1]
  GI50: 2.52 µM
  TGI: > 100 µM
[3]
  GI50: 1.27 µM
  TGI: > 100 µM
[4]
  GI50: 3.82 µM
  TGI: > 100 µM
[5]
  GI50: 0.516 µM
  TGI: > 100 µM
[6]
  GI50: 1.84 µM
  TGI: > 100 µM
[7]
  GI50: 4.48 µM
  TGI: > 100 µM
[8]
  GI50: 1.92 µM
  TGI: 5.64 µM
[9]
  GI50: 1.33 µM
  TGI: 3.11 µM

## CC12CCC3(OCCO3)C(OC(=O)c3ccccc3)=C1CCC21OCCO1 (stereo unspecified)
[2]
  TGI: > 100 µM
[3]
  TGI: > 100 µM
[4]
  TGI: > 100 µM
[10]
  TGI: > 100 µM
[6]
  TGI: > 100 µM
[7]
  TGI: > 100 µM
[8]
  TGI: > 100 µM
[9]
  TGI: > 100 µM

## CN1C(=O)C2C3C=C4c5ccccc5N(c5ccccc5)C4(C2C1=O)[C@H]1C(=O)N(C)C(=O)[C@@H]31 (stereo partly specified)
[1]
  TGI: > 100 µM
[2]
  TGI: > 100 µM
[3]
  TGI: > 100 µM
[4]
  TGI: > 100 µM
[5]
  TGI: > 100 µM
[6]
  TGI: > 100 µM
[7]
  TGI: > 100 µM

## CO/N=C(\C)c1ccc(Nc2cc(-c3ccccc3)nc3ccc(OC)cc23)cc1
[1]
  GI50: 2.52 µM
  TGI: 10.3 µM
[3]
  GI50: 3.4 µM
  TGI: 11.9 µM
[4]
  GI50: 10.2 µM
  TGI: 28.8 µM
[5]
  GI50: 5.42 µM
  TGI: > 100 µM
[10]
  GI50: 2.05 µM
  TGI: 5.16 µM
[6]
  GI50: 5.33 µM
  TGI: > 100 µM
[7]
  GI50: 1.7 µM
  TGI: 4.11 µM
[9]
  GI50: 1.77 µM
  TGI: 3.31 µM

## CN(C)CCNC(=O)c1cccc(N(C)C(=O)c2ccccc2)c1[N+](=O)[O-]
[1]
  TGI: > 100 µM
[2]
  TGI: > 100 µM
[3]
  TGI: > 100 µM
[4]
  TGI: > 100 µM
[5]
  TGI: > 100 µM
[10]
  TGI: > 100 µM
[6]
  TGI: > 100 µM
[7]
  TGI: > 10 µM
[9]
  TGI: > 100 µM

## O=c1[nH]c(=S)[nH]c2c1CN(CCCN1CCOCC1)CN2
[1]
  TGI: 54.4 µM
[2]
  TGI: > 100 µM
[3]
  TGI: > 100 µM
[4]
  TGI: 59.1 µM
[5]
  TGI: > 100 µM
[10]
  TGI: > 100 µM
[6]
  TGI: > 100 µM
[7]
  TGI: > 100 µM
[9]
  TGI: > 100 µM

## CC(C)([NH-])CO.CC(C)([NH-])CO.[Cl][Cd][Cl]
[1]
  GI50: 13.9 µM
  TGI: 28.4 µM
[2]
  GI50: > 100 µM
  TGI: > 100 µM
[3]
  GI50: 18.6 µM
  TGI: 38.9 µM
[4]
  GI50: 18.4 µM
  TGI: 35.3 µM
[5]
  GI50: 18.7 µM
  TGI: 40 µM
[10]
  GI50: 18.3 µM
  TGI: 32.3 µM
[6]
  GI50: 28.8 µM
  TGI: 67.1 µM
[9]
  GI50: 4.47 µM

## Cn1cnc([N+](=O)[O-])c1Sc1nccn1-c1cccc2ccccc12
[1]
  TGI: 50.6 µM
[2]
  TGI: > 100 µM
[3]
  TGI: > 100 µM
[4]
  TGI: 84.2 µM
[5]
  TGI: > 100 µM
[10]
  TGI: > 100 µM
[6]
  TGI: 88.1 µM
[7]
  TGI: > 100 µM
[9]
  TGI: > 100 µM

## C/C(CC(=O)Nc1ccc(C)c(C)c1)=N\NC(N)=O
[1]
  TGI: > 100 µM
[2]
  TGI: > 100 µM
[3]
  TGI: > 100 µM
[4]
  TGI: > 100 µM
[5]
  TGI: > 100 µM
[6]
  TGI: > 100 µM
[8]
  TGI: > 100 µM
[9]
  TGI: > 100 µM

## CC(C)(C)c1cc(-n2c(-c3ccc(Cl)cc3)nc3cc(C(=O)Nc4ccc(Cl)cc4)ccc32)n[nH]1
[1]
  GI50: 4.86 µM
  TGI: > 100 µM
[2]
  GI50: 14.1 µM
  TGI: 36.9 µM
[4]
  GI50: 9.03 µM
  TGI: > 100 µM
[6]
  GI50: > 100 µM
  TGI: > 100 µM
[7]
  GI50: 5.82 µM
  TGI: > 100 µM
[8]
  GI50: 8.57 µM
  TGI: 63.6 µM

## Cn1c2c(c3ccc([N+](=O)[O-])cc3c1=O)C(=O)c1ccccc1-2
[2]
  GI50: > 100 µM
  TGI: > 100 µM
[3]
  GI50: > 100 µM
  TGI: > 100 µM
[4]
  GI50: > 100 µM
  TGI: > 100 µM
[10]
  GI50: 80.5 µM
  TGI: > 100 µM
[6]
  GI50: > 100 µM
  TGI: > 100 µM
[7]
  GI50: > 100 µM
  TGI: > 100 µM
[9]
  GI50: > 100 µM
  TGI: > 100 µM

## C=C1CCC2C3(C)COC(c4ccccc4)OC3CCC2(C)C1/C=C/C1=CCOC1=O (stereo unspecified)
[1]
  GI50: 9.68 µM
  TGI: 24.2 µM
[2]
  GI50: 22.9 µM
  TGI: 46.7 µM
[3]
  GI50: 2.96 µM
  TGI: 10 µM
[4]
  GI50: 5.22 µM
  TGI: 22.5 µM
[5]
  GI50: 2.31 µM
  TGI: > 100 µM
[6]
  GI50: 3.23 µM
  TGI: 10.7 µM
[7]
  GI50: 3.82 µM
  TGI: 15.9 µM
[8]
  GI50: 2.93 µM
  TGI: 8.65 µM
[9]
  GI50: 8.67 µM
  TGI: 21.6 µM

## CCOC(=O)c1cc2c(cc1Cl)SC(N(c1ccc(OC)cc1)S(=O)(=O)c1ccc(Cl)cc1)=NS2(=O)=O
[1]
  GI50: 34.6 µM
  TGI: > 100 µM
[2]
  GI50: > 100 µM
  TGI: > 100 µM
[3]
  GI50: 27.6 µM
  TGI: 72.8 µM
[4]
  GI50: 23.5 µM
  TGI: 67.6 µM
[5]
  GI50: 38.6 µM
  TGI: > 100 µM
[10]
  GI50: 35.8 µM
  TGI: > 100 µM
[6]
  GI50: 29.4 µM
  TGI: > 100 µM
[7]
  GI50: 31.8 µM
  TGI: > 100 µM
[9]
  GI50: 21.2 µM
  TGI: 54.4 µM
